How the values were obtained:
CB2 receptor = CB2 receptor (Homo sapiens, UniProt P34972); conditions: background, known compound; cited from earlier work
[1] = test system: arachidonic acid-induced swelling of the ear in female Sabra mice; assay: Arachidonic acid-induced ear inflammation in the mouse; assay type: in vivo; conditions: for arachidonic acid-induced ear swelling: injected 30 to 90 min before arachidonic acid
Protocol: The other ear was treated with […] of EtOH and served as a control. Ear swelling was assessed by measuring ear thickness with a dial thickness gauge (Mitutoyo, Japan) just before treatment and every 15 min after A′A application for 90 min. […] N=5 for each treatment group.
Ear inflammation was measured by assessing ear tissue swelling after topical application of arachidonic acid. […] J., Wagner, B., Ballaron, S. & De Young, L. M. (1984) J. Invest. Dernlatol. 82, 367–371]. […] The opposite ear served as a control ([…] ethanol). Ear thickness was determined (in 0.01 mm units) every 15 min for 90 min starting immediately after arachidonic acid application using a dial thickness gauge (Mitutoyo, Japan).

[2] = test system: formalin-induced peripheral pain in mice; assay: Formalin test for peripheral pain; assay type: in vivo, mouse
Protocol: Pain was assessed as the total number of licks of the injected hindpaw recorded for the duration of one hr. Early (5 min) and late (25–60 min) phase pain were observed as described in Calignano, A., La Rana, G., Giuffrida, A. & Piomelli, D. (1998) Nature (London) 394, 277–280.
Pain mediated by the peripheral nervous system, was tested in the “formalin test” for cutaneous (peripheral) pain [Tjolson, A., Berge, O-G., Hunskaar, S., Rosland, J. H. and Hole, K. (1992) Pain, 51, 5–17; Calignano, A., La Rana, G., Giuffrida, A & Piomelli, D. (1998) Nature (London) 394, 277–280; and Jagger, S. I., Hasnie, F. S., Sellaturay, S. and Rice, A.S.C. (1998) Pain 76, 189–199]. […] Immediately after formalin administration pain was assessed every 5 min for 1 hr by the number of times the animal licks the formalin-injected paw.

female C57/BL6 mice = test system: female C57/BL6 mice
Protocol: This difference in binding is reflected in the results of the pharmacological assays. […] Such effects are considered to be mediated by the CBI receptor.
R. (1993) Eur. J. Pharmacol. 231, 313–314]. At various times after injection mice were tested in four assays consecutively. The four assays were (1) motor activity (ambulation and rearing) in an open field (20×30 cm, divided into 12 squares of equal size) for 8 min; (2) immobility (“catalepsy”) on a ring of 5.5 cm diameter for 4 min; (3) body temperature with a telethermometer (Yellow Springs Instruments Co.); and (4) analgesia on a hot plate maintained at 55° C., measured as the latency (in seconds) until the first hind paw lick or jump from the plate (the latter response was rarely observed) with a maximum of 45 s.

[3] = test system: acetic acid induced inflammatory bowel disease in male Sprague Dawley rats; assay: Acetic acid induced inflammatory bowel disease; assay type: in vivo, rat
Protocol: Animals were clinically followed for 1 week and body weight, presence of blood in the stool, and stool consistency were monitored and recorded daily and scored on a scale of 0–4 according to the scale provided in Table 1 [Murthy et al., Dig. Dis. Sci., 38(9), 1722–1734, (1993)].
Seven days post disease induction animals were euthanized with phenobarbital (100 mg/kg i.p.), the whole colon excised, slit longitudinally, and examined under a magnifying glass. Any visible damage to the colon was recorded and scored.
Clinical outcome was analyzed using analysis of variance (ANOVA) followed by Duncan's post hoc test. A non-parametric test (Wilcox Rank Sum Test) was used to evaluate the gross pathology findings.

anesthetized rats = assay: Blood pressure assay in anesthetized cannulated rats; assay type: in vivo, rat
Protocol: Systemic blood pressure was monitored in male rats (Sabra strain, 270–350 g). A chronic cannula (P 50, Clay Adams) was implanted into the femoral artery under pentobarbital anesthesia (60 mg/kg). The jugular vein was cannulated for drug administration. The arterial cannula was attached to a pressure transducer (Db23, Statham City) and the transducer was connected to a data acquisition system (CODAS software and scroller card, Dataq, Ohio). Pressure was sampled at a rate of 1/s.
Recordings were taken for 30–60 min before treatment.

EAE in Lewis rats = assay: Experimental autoimmune encephalomyelitis (EAE); assay type: in vivo, rat; conditions: intravenous, treatment from day 10 to day 18 post induction
female Sabra mice = assay: Inhibition of intestinal motility (fecal pellets voided over 2 hr); assay type: in vivo, mouse
Protocol: Intestinal motility was assessed every 15 min (over a 2 hr period) by the cumulative number of fecal pellets voided in a two hour period after separating the mice into individual cages. […] By 90 min all treated groups differed from controls.
Rectal temperature was also recorded as a measure of central activity.

[4] = test system: experimental autoimmune arthritis in CD-1 male mice; assay: Experimental autoimmune arthritis (collagen type 2 in complete Freund's adjuvant); assay type: in vivo, mouse
Protocol: Experimental autoimmune arthritis is induced in animals by immunization with collagen type 2 in complete Freund's adjuvant.
Adult CD-1 male mice (27–33 gr), at least five per treatment group, are used in the study. Each animal is administered 100 μg/ml collagen type 2 in 0.1 mL complete Freund's adjuvant. The collagen is administered subcutaneously into the base of the tail. The volume of each hind paw is measured using a plethysmometer (commercially available from Hugo Basill of Italy) before collagen administration and on days 1, 4, 7, 10, 13, and 16 of treatment (30 minutes after drug treatment). […] All treatments are administered intraperitoneally. […] The same procedure is performed with blank cosolvent. Diclofenac is prepared at Pharmos, as a solution of 1 mg/ml. At the same time the paws are measured they are also clinically evaluated according to the method of R. O Williams, Proc. Natl. Acad. Sci. USA: 89: 9784–9788, wherein 0=normal, 1=slight swelling and erythema, 2=pronounced edematous swelling, and 3=joint rigidity.
The major arthritis related sign that is evident in experimental autoimmune arthritis is swelling of the paws. […] The differences are compared using a non parametric analysis (Wilcoxon Rank Sum Test).

[5] = 40 mg/kg i.p., tested 10, 30 or 150 min after administration

CB2 receptor, sequence (P34972 whole entry): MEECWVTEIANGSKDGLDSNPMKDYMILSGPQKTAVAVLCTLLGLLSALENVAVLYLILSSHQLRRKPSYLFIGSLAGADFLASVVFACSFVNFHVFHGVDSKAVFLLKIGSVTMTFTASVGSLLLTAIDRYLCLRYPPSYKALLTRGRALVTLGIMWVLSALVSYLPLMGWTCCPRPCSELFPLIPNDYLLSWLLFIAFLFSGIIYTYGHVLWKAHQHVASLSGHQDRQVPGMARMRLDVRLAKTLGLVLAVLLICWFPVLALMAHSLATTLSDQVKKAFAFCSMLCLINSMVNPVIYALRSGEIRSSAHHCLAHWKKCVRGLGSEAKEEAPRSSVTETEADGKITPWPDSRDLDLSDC

C=C1CC[C@@H]2[C@@H](C1)c1c(OC)cc(C(C)(C)CCCCCC)cc1OC2(C)C [L-759,656]
CB1/CB2 binding ratio (CB2 receptor): > 1000

SR 144528
anti-inflammatory effect, antagonist by itself ([1]; 0.5 mg/kg, alone): did not by itself induce an anti-inflammatory effect

CCCCCCC(C)(C)c1cc(OC)c([C@H]2C=C(CO)[C@H]3CC2C3(C)C)c(OC)c1 (single isomer, unassigned; (+)) [HU-308, (+)-(1-a-H,-(3-H,5-a-H)-4-(2,6-dimethoxy-4-(1,1-dimethylheptyl)phenyl]-6,6-dimethylbicycloj3.1.1]hept-2-ene-2-carbinol]
formalin-induced peripheral pain (licks of injected hindpaw), late phase ([2]; 50 mg/kg i.p., 90 min before formalin, late phase (25-60 min)): reduced peripheral pain during the late phase of pain behavior
formalin-induced peripheral pain, early versus late phase ([2]; 50 mg/kg i.p., early (5 min) and late (25-60 min) phase): effects were only observed during the late phase
peripheral analgetic effect after CB1 antagonist SR 141716A ([2]; SR 141716A injected 15 min before HU-308): not by SR 141716A
peripheral analgetic effect after CB2 antagonist SR 144528 ([2]; SR144528 injected 15 min before HU-308 50 mg/kg i.p.): prevented by SR 144528
activity in an open field trial (ambulation, rearing) (female C57/BL6 mice; [5]): no decrease in their activity in an open field trial
analgesia on a hot plate (female C57/BL6 mice; [5]): no analgesia on a hot plate
body temperature (female C57/BL6 mice; [5]): no reduction in body temperature
catalepsy (immobility on a ring) (female C57/BL6 mice; [5]): no catalepsy
activity in the tetrad of behavioral tests specific for THC-type CNS activity (female C57/BL6 mice; mice, summary): no activity
severity of acid induced inflammatory bowel disease ([3]; 10 and 20 mg/kg i.p. daily for seven days): can reduce the severity of acid induced inflammatory bowel disease
reduction of pathological lesion severity in the gastrointestinal tract (gross pathology score) compared to vehicle ([3]; i.p. daily for 7 days, p<0.05 for 10 mg/kg, p=0.052 for 20 mg/kg): 35%
effect on blood pressure (anesthetized rats; 30 mg/kg i.v., anesthetized cannulated rats): lowers blood pressure
hypotensive effect after CB1 antagonist SR 141716A (anesthetized rats; SR141716A 3 mg/kg injected 5 min prior to HU-308 30 mg/kg i.v.): not by the CB1 antagonist SR 141716A
hypotensive effect after CB2 antagonist SR 144528 (anesthetized rats; SR144528 1 mg/kg injected 5 min prior to HU-308 30 mg/kg i.v.): blocked by the CB2 antagonist SR 144528
time for blood pressure effect to return to normal after administration (anesthetized rats; i.v. bolus, preliminary observations): < 30 min
effect on blood pressure, lower doses (anesthetized rats; i.v. doses lower than 30 mg/kg): did not have a significant effect
mean clinical score of EAE (EAE in Lewis rats): diminution of mean clinical score
inhibition of intestinal mobility (female Sabra mice; 20 mg/kg i.p., mice): complete inhibition of intestinal mobility
number of fecal boli voided vs controls (female Sabra mice; 100 mg/kg i.p., after 75 min): significantly fewer boli than controls
inhibition of intestinal motility in presence of CB2 antagonist SR144528 (female Sabra mice; HU-308 plus SR144528): in part blocked this effect
incidence and severity of swelling of the paws ([4]; 2-15 mg/kg i.p. every three days or once daily): decreased incidence and severity of swelling of the paws
arachidonic acid-induced ear swelling ([1]; 50 mg/kg i.p.): significant reduction of arachidonic acid-induced ear swelling
anti-inflammatory effect of HU-308 after CB1 antagonist SR 141716A ([1]; SR 141716A 5 mg/kg administered 15 min before HU-308 50 mg/kg i.p.): did not prevent the anti-inflammatory effect of HU-308
anti-inflammatory effect of HU-308 after CB2 antagonist SR 144528 ([1]; SR 144528 0.5 mg/kg before HU-308 50 mg/kg i.p.): reduced the anti-inflammatory effect of HU-308

O=C(O)Cc1ccccc1Nc1c(Cl)cccc1Cl [diclofenac, reference compound]
paw volume compared to vehicle ([4]; 10 mg/kg i.p. every 3 days, positive control): smaller paw volume compared to the vehicle treated rats, but this difference is not statistically significant

Cc1c(C(=O)NN2CCCCC2)nn(-c2ccc(Cl)cc2Cl)c1-c1ccc(Cl)cc1 [SR 141716A]
arachidonic acid-induced ear swelling, antagonist by itself ([1]; 5 mg/kg i.p., alone): by itself reduced arachidonic acid-induced ear swelling

COc1ccc2c(c1)c(CC(=O)O)c(C)n2C(=O)c1ccc(Cl)cc1 [indomethacin]
arachidonic acid-induced ear swelling ([1]; 20 mg/kg i.p.): significant reduction of arachidonic acid-induced ear swelling
anti-inflammatory effect compared with HU-308 (50 mg/kg) ([1]; indomethacin 20 mg/kg i.p.): greater than that produced by HU-308

From patent US7214716B2, “Agonists specific for the peripheral cannabinoid receptor” (Yissum Research Development Co. of the Hebrew University of …, priority 2000, dated 2007)
